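Cells were grown in 96-well plates and exposed to each compound for 48 hours at five concentrations; endpoints were interpolated linearly between bracketing concentrations, or set to the highest concentration if not reached. GI50 = concentration required for 50% inhibition of growth. TGI: concentration producing complete growth inhibition.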
Assays:
Assay in all cases: growth of human tumour cells (NCI), 48 h
[1] = system: HCC-2998 colon
[2] = system: K-562 leukemia
[3] = system: HCT-15 colon
[4] = system: RPMI-8226 leukemia
[5] = system: TK-10 renal
[6] = system: U251 CNS
[7] = system: NCI-H226 lung
[8] = system: SF-295 CNS
[9] = system: SF-539 CNS
[10] = system: RXF 393 renal

Row | Structure (SMILES) | TGI [1] | TGI [2] | TGI [3] | TGI [4] | TGI [5] | TGI [6] | TGI [7] | TGI [8] | TGI [9] | TGI [10] | GI50 [1] | GI50 [2] | GI50 [3] | GI50 [4] | GI50 [5] | GI50 [6] | GI50 [7] | GI50 [8] | GI50 [9] | GI50 [10]
1 | O=C1C(=O)N(C2C3CC4CC(C3)CC2C4)C(=O)C(=O)C1c1nc2ccccc2o1 (stereo not given) | > 100 µM | 77.4 µM | > 100 µM | > 100 µM | > 100 µM | > 100 µM | > 100 µM | > 100 µM | > 100 µM | > 100 µM |  |  |  |  |  |  |  |  |  | 
2 | O=C1CC2C(=O)N(Cc3ccccc3)C1C(S(=O)(=O)c1ccccc1)C2S(=O)(=O)c1ccccc1 (stereo not given) | 20.7 µM | 6.66 µM | 2.91 µM | 18.4 µM | 3.95 µM | 8.61 µM | 27.8 µM | 37.4 µM | 4.18 µM | 3.5 µM |  |  |  |  |  |  |  |  |  | 
3 | C/C(=N\NC(N)=O)C(CN(C)C)C(c1ccccc1)c1c(O)c2ccccc2oc1=O (stereo not given) | > 100 µM | > 100 µM | > 100 µM | > 100 µM | > 100 µM | > 100 µM | > 100 µM | > 100 µM | > 100 µM | > 100 µM |  |  |  |  |  |  |  |  |  | 
4 | CCSc1nc(COC(=O)NC)c(COC(=O)NC)n1C | > 100 µM | > 68.1 µM | > 100 µM | > 100 µM | > 100 µM | > 100 µM | > 100 µM | > 100 µM | > 100 µM | 78.5 µM |  |  |  |  |  |  |  |  |  | 
5 | CC(=O)NC(CCCN(Cc1ccccc1)C(=O)N(CCCl)N=O)C(=O)NCc1ccccc1 (stereo not given) | > 100 µM | > 100 µM | > 100 µM | > 100 µM | > 100 µM | > 100 µM | > 94.2 µM | > 100 µM | 20.6 µM | 68.9 µM |  |  |  |  |  |  |  |  |  | 
6 | O=C(Cc1ccccc1)N/N=C(\C1=Nc2ccc([N+](=O)[O-])cc2NC1O)C(O)c1ccc([N+](=O)[O-])cc1 (stereo not given) | > 100 µM | > 100 µM | > 100 µM | > 100 µM | > 100 µM | > 100 µM | > 100 µM | > 100 µM | > 100 µM | > 100 µM |  |  |  |  |  |  |  |  |  | 
7 | C=C(N=[N+]=[N-])c1cn(C2CC(O)C(CO)O2)c(=O)[nH]c1=O (stereo not given) | > 100 µM | > 100 µM | > 100 µM | > 100 µM | > 100 µM | > 100 µM | > 100 µM | > 100 µM | > 100 µM | > 100 µM |  |  |  |  |  |  |  |  |  | 
8 | CCOC(=O)N1C2C=C(C)C(C3C(C)C(=O)N31)N(C(=O)c1ccccc1)O2 (stereo not given) | > 100 µM | > 100 µM | > 100 µM | > 100 µM | > 100 µM | > 100 µM | > 100 µM | > 100 µM | > 100 µM | > 100 µM |  |  |  |  |  |  |  |  |  | 
9 | Clc1ccc(CN2COc3c(cc(Cl)c4cccnc34)C2)cc1 | 12 µM | 3.74 µM | 13.5 µM | 3.42 µM | 13.4 µM | 6.45 µM | 8.67 µM | 7.1 µM | 4.92 µM | 5.86 µM |  |  |  |  |  |  |  |  |  | 
10 | C=CCc1ccc(O)c(-c2cc(C3Oc4c(-c5cc(CC=C)ccc5O)cc(O)cc4[C@@H]3CO)ccc2O)c1 (stereo not given in full) | 68.7 µM | 34.1 µM | 29.3 µM | 65.6 µM | > 100 µM | 68.7 µM | > 100 µM | > 100 µM | 56.3 µM | 55.8 µM |  |  |  |  |  |  |  |  |  | 
11 | CN(C)c1ccc(N=Nc2c([O-])ccc3ccccc23)cc1.[C-]#[O+].[C-]#[O+].[Ir] | > 79.9 µM | > 100 µM | 34.9 µM | > 65.1 µM | 51.7 µM | > 69.3 µM | > 100 µM | > 100 µM | 25.6 µM | 32.9 µM | 38.5 µM | 29.4 µM | 18.5 µM | 22.7 µM | 23.8 µM | 35.1 µM | > 53.9 µM | > 100 µM | 16.3 µM | 18.3 µM
12 | CC(C)[C@@H](COC(C)(C)C)N=CN1CCc2c([nH]c3ccccc23)C1 | > 100 µM | > 100 µM | > 100 µM | > 100 µM | > 100 µM | > 100 µM | > 100 µM | > 100 µM | > 100 µM | > 100 µM |  |  |  |  |  |  |  |  |  | 
13 | COc1ccccc1-c1c(C)nn2c(NCc3ccccn3)cc(C)nc12 | > 50 µM | > 50 µM | > 50 µM | > 50 µM | > 50 µM | > 50 µM | > 50 µM | > 50 µM | > 50 µM | > 50 µM | > 50 µM | 5.85 µM | 9.76 µM | 13.6 µM | > 25.6 µM | > 41.9 µM | 40.3 µM | 21.2 µM | 44.3 µM | 33.5 µM
14 | O=C(Nc1cc(Cl)c(Cl)cc1Cl)C(=O)C(C(=O)c1ccc(Cl)c(Cl)c1)C1OC(=O)c2ccccc21 (stereo not given) | 33.6 µM | 63.9 µM | 40.3 µM | 86.7 µM | 52 µM | 30.9 µM | 22.7 µM | 36.6 µM | 7.89 µM | 21.9 µM |  |  |  |  |  |  |  |  |  | 
15 | CC(C)OC(=O)c1ccc2[nH]c(O)c(C(=Nc3ccc(N(C)C(=O)CN4CCN(C)CC4)cc3)c3ccccc3)c2c1 | 2.21 µM | 2.06 µM | 1.52 µM | 1.79 µM | 2.52 µM | 2.4 µM | 2.83 µM | 2.47 µM | 1.16 µM | 0.652 µM | 0.792 µM | 0.0435 µM | 0.372 µM | 0.385 µM | 0.561 µM | 0.622 µM | 1.1 µM | 1.19 µM | 0.318 µM | 0.224 µM
16 | Clc1ccc2nc(Oc3ccccc3)cnc2c1 | > 100 µM | > 100 µM | > 100 µM | > 100 µM | > 100 µM | > 100 µM | > 100 µM | > 100 µM | > 100 µM | > 100 µM | > 100 µM | > 100 µM | > 100 µM | > 100 µM | > 100 µM | > 100 µM | > 100 µM | > 100 µM | > 100 µM | > 100 µM
17 | CCOC(=O)c1cnn(-c2ccnc3c(C(F)(F)F)cccc23)c1N | > 100 µM | > 100 µM | > 100 µM | > 100 µM | > 100 µM | > 100 µM | > 100 µM | > 100 µM | > 100 µM | > 100 µM | > 100 µM | > 100 µM | > 100 µM | 98.4 µM | > 100 µM | > 100 µM | > 100 µM | > 100 µM | > 100 µM | > 100 µM

Source: PubChem BioAssay (NCI)
